Experimental findings from US9828330B2, “Non-peptide BDNF neurotrophin mimetics” (PHARMATROPHIX, INC., priority 2013, dated 2017) are described below.

Series [1] in a line: Observations and adverse reactions after intraperitoneal administration in CD-1 mice. Type of series: in vivo. The note with it: IP 50 mg/kg. How it is done: (§1) In this study, the brain-to-plasma ratio of compounds of the invention was evaluated after intraperitoneal dosing in fasted male CD-1 mice. Test compounds were dosed at 50 mg/kg in sterile water for injection. Plasma and brain homogenate levels were determined at 1 and 3 hours post dose by LC-MS/MS. […] Penetration of the present compounds through the blood-brain barrier allows the compounds to exerts their receptor binding activity to achieve the therapeutic effects.

A short description of series [2]: Brain-to-plasma ratio after intraperitoneal administration in male CD-1 mice (LC-MS/MS of plasma and brain homogenate). The note with it: for Kp at 1 h / Kp at 3 h / concentration at 1 h / concentration at 3 h: male, CD-1, mouse, ip; for Kp at 1 h / Kp at 3 h: brain/plasma. In kind it is in vivo. How it is done:
as §1
All data are expressed as ng/mL (equivalent to ng/g for calculation of brain:plasma ratio) of the free drug. Samples that were below the limit of quantitation were not used in the calculation of averages.
Brain-to-plasma ratios were determined by dividing the brain concentration in ng/g by the plasma concentration in ng/g.
Brain samples were homogenized with a Virsonic 100 ultrasonic homogenizer. Each brain sample was first weighed, and then an appropriate volume of 20:80 methanol:water was added to make a 4 mL/1 gram sample. Samples were then homogenized on ice, and stored frozen until analysis.
Standards samples were prepared in either CD-1 Mouse plasma containing K2EDTA as an anticoagulant or CD-1 mouse brain homogenate. Working solutions (200 μg/mL and/or 20 μg/mL for each test compound) was prepared in 50:50 ACN:water. Then, a nine-point calibration curve was prepared at concentrations of 2000, 1500, 1000, 500, 100, 50, 20, 10, and 5 ng/mL of each test compound by serial dilution; or for a high-sensitivity method, another nine point calibration curve was prepared at concentrations of 200, 150, 100, 50, 10, 5, 2, 1, and 0.5 ng/mL of each test compound by serial dilution. Standard samples were treated identically to the study samples.
Plasma and brain homogenate samples were extracted via acetonitrile precipitation on a Tomtec Quadra 96-Model 320 liquid handling system in a 96-well plate format.
HPLC Conditions • Instrument: Perkin Elmer series 200 micropumps and Autosampler • Column: Phenomenex Synergi Polar-RP, 4μ, 80A, 50×2.0 mm • Mobile Phase Buffer: 40 mM ammonium formate, pH 3.5 • Aqueous Reservoir (A): 10% buffer, 90% water • Organic Reservoir (B): 10% buffer, 90% acetonitrile • Gradient Program:
• Flow Rate: 400 μL/min • Injection Volume: […], • Run Time: 5.0 min • Column Temperature: ambient • Autosampler Wash Solution #1: ACN:IPA:H2O 40:30:30 (v/v/v) w/0.2% formic acid • Autosampler Wash Solution #2: MeOH:H2O 50:50 (v/v) Mass Spectrometer Conditions (for Calibration Curve from 5 to 2000 ng/mL) • Instrument: PE Sciex API 4000 • Interface: Electrospray (“Turbo Ion Spray”) • Mode: Multiple Reaction Monitoring (MRM) • Gases: CUR 20, GS1 20, GS2 10, CAD Medium, IS 5200 • Source Temperature: 500° C., ihe OFF • Voltages and Ions Monitored*:
Mass Spectrometer Conditions (for Calibration Curve from 0.5 to 200 ng/mL, High Sensitivity Method) • Instrument: PE Sciex API 4000 Q TRAP • Interface: Electrospray (“Turbo Ion Spray”) • Mode: Multiple Reaction Monitoring (MRM) • Gases: CUR 20, GS1 20, GS2 10, CAD Medium, IS 5200 • Source Temperature: 500° C., ihe OFF • Voltages and Ions Monitored*: […]

[3] abbreviates: 1.0 hr after IP dosing at 50 mg/kg, individual fasted male CD-1 mice, 50 mg/kg.
Setting [4] is: 1.0 hr after IP dosing at 50 mg/kg, individual mice, 50 mg/kg.
Setting [5] is: 1.0 hr after IP dosing at 50 mg/kg, mean of mice, 50 mg/kg.
Setting [6] is: 3.0 hr after IP dosing at 50 mg/kg, individual fasted male CD-1 mice, BLQ = below 0.5 ng/mL, 50 mg/kg.
[7] abbreviates: 3.0 hr after IP dosing at 50 mg/kg, individual mice, 50 mg/kg.
Where [8] appears, read: 50 mg/kg, 1.0 hr after IP dosing at 50 mg/kg, mean of mice, read-out: Average B:P Ratio.
The mark [9] stands for this setting: 50 mg/kg, 3.0 hr after IP dosing at 50 mg/kg, individual mice, read-out: B:P Ratio.
[10] abbreviates: 50 mg/kg, 3.0 hr after IP dosing at 50 mg/kg, mean of mice (Compound-3: one animal only), read-out: Average B:P Ratio.
The mark [11] stands for this setting: plasma, 50 mg/kg, 1.0 hr after IP dosing at 50 mg/kg, individual mice, read-out: Plasma Conc.

Each structure is given as a SMILES string. Where “and” joins values, the source holds several entries; their conditions need not be identical. Identical values can stand only once. Like-named read-outs stand apart in the source and are kept apart here.

In the case of `COCCN(CCOC)c1ccc(C(C)c2ccc(N(CCOC)CCOC)cc2)cc1` [Compound-2, 4,4′-(ethane-1,1-diyl)bis(N,N-bis(2-methoxyethyl)aniline)], the “Adverse effects after intraperitoneal administration” value in series [1] is “No adverse effects were observed”. Also, the “Brain Tissue Homogen. Conc” value was 41.6 µg/mL and 122 µg/mL and 25.2 µg/mL in series [2] (setting [3]); 26.3 µg/mL and 12.2 µg/mL and 6.22 µg/mL in series [2] (setting [6]). Further, the “B:P Ratio” value was 0.58 and 0.99 and 0.34 in series [2] (setting [4]); 0.56 and 0.49 in series [2] (setting [7]). Further, the “Brain Tissue Conc” value in series [2] (setting [4]) was 208 µg/mL and 610 µg/mL and 126 µg/mL; in series [2] (setting [7]), 132 µg/mL and 61.0 µg/mL and 31.1 µg/mL. Further, the “Plasma Conc” value was 614 ng/mL and 369 ng/mL in series [2] (setting [4]); 202 ng/mL and 108 ng/mL and 63.1 ng/mL in series [2] (setting [7]). Further, the “Average B:P Ratio” value in series [2] (setting [5]) is listed as 0.638; in series [2] (3.0 hr after IP dosing at 50 mg/kg, mean of mice (Compound-3: one animal only), 50 mg/kg), 0.570. The Kp at 1 h in series [2] (setting [8]) worked out at 0.638 ± 0.33. In addition, the Kp at 3 h in series [2] (setting [9]) is 0.65; in series [2] (setting [10]), 0.57 ± 0.079. Moreover, in series [2] (setting [11]), the concentration at 1 h was found to be 359 ng/mL.

Regarding `CC(c1ccc(N(CCO)CCO)cc1)c1ccc(N(CCO)CCO)cc1` [Compound-3, 2,2′,2″,2′″-((ethane-1,1-diylbis(4,1-phenylene))bis(azanetriyl))-tetraethanol], the “Adverse effects after intraperitoneal administration” value in series [1] is reported as “No adverse effects were observed”. In addition, the “Brain Tissue Homogen. Conc” value was 2.87 µg/mL and 2.24 µg/mL in series [2] (setting [3]); “BLQ” in series [2] (setting [6]). The “B:P Ratio” value in series [2] (setting [4]) is 0.27 and 0.36. Also, the “Brain Tissue Conc” value in series [2] (setting [4]) was 14.4 µg/mL and 11.2 µg/mL. Moreover, the “Plasma Conc” value in series [2] (setting [4]) was 52.6 ng/mL and 30.9 ng/mL; in series [2] (setting [7]) it was 2.02 ng/mL and 1.67 ng/mL. Moreover, the “Average B:P Ratio” value in series [2] (setting [5]) came out at 0.328; in series [2] (3.0 hr after IP dosing at 50 mg/kg, mean of mice (Compound-3: one animal only)) it was 1.14. In addition, the concentration at 1 h in series [2] (brain homogenate, 50 mg/kg, 1.0 hr after IP dosing at 50 mg/kg, individual fasted male CD-1 mice, read-out: Brain Tissue Homogen. Conc) came out at 2210 ng/mL; in series [2] (brain, 50 mg/kg, 1.0 hr after IP dosing at 50 mg/kg, individual mice, read-out: Brain Tissue Conc), 11100 ng/mL; in series [2] (setting [11]) it was 31.8 ng/mL. Also, the concentration at 3 h amounted to 611 ng/mL in series [2] (brain homogenate, 50 mg/kg, 3.0 hr after IP dosing at 50 mg/kg, individual fasted male CD-1 mice, BLQ = below 0.5 ng/mL, read-out: Brain Tissue Homogen. Conc); 3060 ng/mL in series [2] (brain, 50 mg/kg, 3.0 hr after IP dosing at 50 mg/kg, individual mice, read-out: Brain Tissue Conc); 2.67 ng/mL in series [2] (plasma, 50 mg/kg, 3.0 hr after IP dosing at 50 mg/kg, individual mice, read-out: Plasma Conc). Further, the Kp at 1 h in series [2] (50 mg/kg, 1.0 hr after IP dosing at 50 mg/kg, individual mice, read-out: B:P Ratio) stood at 0.35; in series [2] (setting [8]) it was 0.328 ± 0.048. Further, the Kp at 3 h in series [2] (setting [9]) and in series [2] (setting [10]) was 1.14 each time.
